Data set [1] relates to MCF-7 cells. The experiment in a line: MTT cytotoxicity assay, MCF-7. To be noted: Homo sapiens, MCF7, 72 h, read-out: In Vitro Cytotoxicity IC50 MCF-7. For orientation: Formazan colour is commonly taken as a measure of viable cells.
Procedure: (§4) The in vitro cytotoxic testing of novel derivatives was performed against different three cancer cell lines, HepG2, MCF-7, and HCT116, using standard MTT assay as previously reported [22, 62, 63, 64].
The subject of a further data set is HepG2 and MCF-7 cells. Briefly: DNA fragmentation, diphenylamine test. The class given is cell-based, human. Conditions: 24 h at IC50 value, untreated control about 4.7 ± 0.2%. Here is the method: Apoptosis is characterized by DNA fragmentation, which occurs in all stages of the process. The percentage of fragmented DNA released into the cytoplasm from apoptotic nuclei was determined using a diphenylamine test.
DNA fragmentation was quantitatively determined using a diphenylamine (DPA) reagent according to the method of Boraschi and Maurizi.

The target of the next data set is LSD1 demethylase (Homo sapiens, UniProt O60341). Briefly: LSD1 demethylase inhibition assay.
A further data set relates to HCT116 cells. The experiment in a line: MTT cytotoxicity assay, HCT116. To be noted: Homo sapiens, HCT-116, 72 h, read-out: In Vitro Cytotoxicity IC50 HCT116.
Another data set concerns the target T1, hMAO-B (Homo sapiens, UniProt P27338).
T1 sequence (P27338 1-520): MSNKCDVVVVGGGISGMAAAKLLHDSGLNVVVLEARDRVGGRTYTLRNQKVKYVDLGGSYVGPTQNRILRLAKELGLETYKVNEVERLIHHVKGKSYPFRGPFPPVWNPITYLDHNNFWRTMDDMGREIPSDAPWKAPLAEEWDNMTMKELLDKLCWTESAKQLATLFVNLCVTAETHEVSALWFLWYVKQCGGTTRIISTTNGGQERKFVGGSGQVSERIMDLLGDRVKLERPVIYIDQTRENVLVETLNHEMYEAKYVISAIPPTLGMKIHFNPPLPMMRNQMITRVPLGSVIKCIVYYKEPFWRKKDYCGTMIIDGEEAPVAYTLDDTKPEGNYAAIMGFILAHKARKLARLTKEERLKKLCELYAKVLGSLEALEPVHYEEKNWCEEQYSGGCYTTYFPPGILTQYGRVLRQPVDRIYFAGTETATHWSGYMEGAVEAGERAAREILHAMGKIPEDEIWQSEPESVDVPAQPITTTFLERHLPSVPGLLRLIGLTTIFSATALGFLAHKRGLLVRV
The experiment in a line: MAO activity screening, hMAO-B. To be noted: tyramine at 2 × KM (0.32 mM); two independent experiments. The data set is classed as biochemical. As for the experimental part:
(§1) Here, the potent selective compound 27 was screened for measuring target selectivity against high structural similar membrane-bound human hMAO-A and hMAO-B at 10 µM in the presence of tyramine at 2 × KM (0.8 mM for MAO-A and 0.32 mM for MAO-B) (Table 5).
(§2) The coupled assay approach was used to evaluate MAO activity in which the product, H2O2, acts with horseradish peroxidase to convert 10-acetyl-3,7-dihydroxyphenoxazine to the fluorescent resorufin. The percent inhibition was computed from the top and bottom of the resultant curve using the equation for a three-parameter curve in GraphPad Prism v. 4, (Graphstats, New York, NY, USA).

For a further data set, the system named is HepG2 cells. The experiment in a line: MTT cytotoxicity assay, HepG2. Conditions: Homo sapiens, HepG2, 72 h, read-out: In Vitro Cytotoxicity IC50 HepG2.
Data set [2] deals with MCF-7 cells. The experiment in a line: Cell cycle analysis by flow cytometry. The class given is cell-based, human. Details: DNA Content %G0-G1 / DNA Content %S / DNA Content %G2-M / DNA Content %Pre G1: dose or concentration left out as unconfirmed. To be noted: MCF-7, 24 h. As for the experimental part:
The cell cycle is a series of growth and development processes that culminate in DNA replication and cell division. G1 phase, S phase (synthesis), G2 phase, and M phase are the four different phases. We chose our promising chemical 27 based on the results of the MTT assay (Table 1) to further examine its effect on the apoptotic process and investigate its ability to play an active role in cell cycle progression in MCF-7 cells. MCF-7 cells were treated for 24 h with compound 27 at a concentration of […], and flow cytometry was performed in the presence of annexin V-FITC/PI.
(§3) Using the annexin V-FITC and PI apoptosis kit (eBioscience^TM, San Diego, CA, USA), the apoptosis detection was performed. MCF cells were plated onto a six-well plate at a 600,000 cells/mL density and then treated with compound 27 at […] after 24 h of incubation, and the assay was completed as previously described.
Cell cycle arrest and distribution was assessed, using the Propidium Iodide Flow Cytometry Kit (ab139418, Abcam, USA, CA, USA), followed by flow cytometry analysis according to the previous methodology.

A further data set has as its target T2, hMAO-A (Homo sapiens, UniProt P21397).
T2 sequence (P21397 1-527): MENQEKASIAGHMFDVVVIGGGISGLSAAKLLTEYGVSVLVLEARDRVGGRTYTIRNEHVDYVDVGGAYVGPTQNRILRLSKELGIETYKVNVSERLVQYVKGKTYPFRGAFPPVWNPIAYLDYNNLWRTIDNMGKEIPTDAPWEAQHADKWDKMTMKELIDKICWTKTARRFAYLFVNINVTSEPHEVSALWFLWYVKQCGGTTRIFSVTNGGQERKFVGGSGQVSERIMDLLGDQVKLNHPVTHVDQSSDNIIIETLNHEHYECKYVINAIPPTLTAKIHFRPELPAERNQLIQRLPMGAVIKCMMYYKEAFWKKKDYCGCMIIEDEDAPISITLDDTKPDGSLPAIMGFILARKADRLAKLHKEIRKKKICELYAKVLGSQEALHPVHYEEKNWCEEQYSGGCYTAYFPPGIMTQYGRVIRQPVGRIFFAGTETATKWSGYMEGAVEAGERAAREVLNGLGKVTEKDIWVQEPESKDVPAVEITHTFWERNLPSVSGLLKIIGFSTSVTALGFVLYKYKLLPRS
The experiment in a line: MAO activity screening, hMAO-A. The data set is classed as biochemical. Conditions: tyramine at 2 × KM (0.8 mM); two independent experiments. Here is the method:
as §1, §2

The subject of data set [3] is MCF-7 cells. The experiment in a line: Annexin V-FITC/PI dual staining apoptosis assay. The class given is cell-based, human. To be noted: MCF-7, 2.0 µM, 24 h. Here is the method: This test used the breast MCF-7 cell line to assess the percentage of apoptosis caused by compound 27, in which MCF-7 cells were treated with compound 27 at 2.0 µM concentration for 24 h to measure the percentage of apoptosis induced by compound 27. […] These findings are in line with statistics derived from DNA content.
Each sample’s histogram was separated into four quadrants to show viable (lower left quadrant), necrotic (higher left quadrant), apoptotic (lower right quadrant), and necrotic/late apoptotic (upper right quadrant) cells. The Annexin V Apoptosis Detection Kit is based on the finding that apoptotic cells can transport phosphatidylserine (PS) from the plasma membrane’s inner surface to the cell surface. As a result, the presence of PS on the cell surface is regarded as an important technique for detecting apoptotic cells. PS can be easily detected by labeling with a fluorescent compound of annexin V, a protein with a high affinity for PS, and then analyzing the results by flow cytometry. When annexin V and PI staining are performed simultaneously, the kit can distinguish between apoptosis and necrosis. Only when the plasma membrane is completely damaged may PI enter the cell. This allows early apoptotic cells (negative for PI but positive for PS) to be distinguished from late apoptotic and necrotic cells (positive for both PI and PS). […] Cells were tested using annexin V and PI double-staining flow cytometry, which detect both PS residues and DNA, respectively, to validate the potential to trigger apoptosis. They were then cultured for 24 h before being examined. The tested compound was able to produce considerable levels of cell death in a dose-dependent manner, according to analyses of early and late apoptosis (Table 4, Figure 2 and Figure 3).
as §3
The MCF-7 cells were treated with tested compounds 27 for 24 h and stained with annexin V-FITC/PI to detect externalization of PS from cell membrane and analyze apoptotic and necrotic cell population as previously described.

A further data set in a line: in vitro. Conditions: human, WI38 normal lung fibroblast cells.

Structures are written as SMILES.

Procedure for HCT116 cells: as §4
Procedure for HepG2 cells: as §4
Procedure for LSD1 demethylase: The inhibition of LSD1 activity by our tested compounds was evaluated according to a previously reported procedure [65, 66, 67, 68] and as mentioned in the assay kit in Supplementary Materials.

`C=CCNc1nnc(-c2cc(-c3nnc(NCC=C)s3)cc(-c3nnc(NCC=C)s3)c2)s1` [Compound 27, 5,5′,5″-(benzene-1,3,5-triyl)tris(N-allyl-1,3,4-thiadiazol-2-amine)]: in the data set on MCF-7 cells [1], the IC50 is 1.52 ± 1.02 µM. In addition, the “Percentage of DNA fragmentation” value in the data set on HepG2 and MCF-7 cells was around 23 ± 1.2%. Moreover, on LSD1 demethylase (LSD1 inhibition IC50, as quoted in the docking section), the IC50 is 0.0464 µM. The molecule further yielded an IC50 on LSD1 demethylase (LSD1 inhibitory IC50, Table 2, mean ± S.D., at least three tests) of 0.046 ± 0.003 µM. In the data set with HCT116 cells, the IC50 was determined as 10.3 ± 0.15 µM. On hMAO-B, the IC50 is above 100 µM. For the same molecule, the IC50 with HepG2 cells came out at 24.7 ± 1.01 µM. Further, in the data set with MCF-7 cells [2], the “Comment (cell cycle)” value is “pre G1 Apoptosis and cell cycle arrest at G2-M”; the “DNA Content %G0-G1” value stood at 35.15%; the “DNA Content %G2-M” value turned out to be 35.59%; the “DNA Content %Pre G1” value worked out at 37.11%. Moreover, the “DNA Content %S” value with MCF-7 cells [2] is 28.26%. The molecule further returned an IC50 on hMAO-A of 87.1 ± 2.36 µM. For the same molecule, in the data set on MCF-7 cells [3], the “Apoptosis Early” value is 5.33%, the “Apoptosis Late” value is recorded as 20.53%, the “Apoptosis Total” value is given as 37.11% and the “Enhancement of late apoptosis compared with untreated cells” value came to 114 fold. The molecule also showed a Necrosis with MCF-7 cells [3] of 11.25%. The same molecule came in with an IC50 at 72 h in the data set “in vitro” above 85 µM.

Usually IC50 stands for the concentration needed to halve the response being measured.

The record behind these values is publication PMC9369007 (International Journal of Molecular Sciences, 2022).
